Assay results: patent US9474793B2, “Vaccines and methods for prevention and treatment of drug-resistant HIV-1 and hepatitis B virus” (The United States of America, as represented by the …, priority 2005, dated 2016)
Where “and” joins values, the source holds several entries; their conditions need not be identical. Identical values can stand only once. Entries after “also recorded” stand apart in the source; their conditions may differ. Like-named read-outs stand apart in the source and are kept apart here.

How the values were obtained:
[1] = cited from earlier work
HIV = conditions: patients infected with HIV; cited from earlier work
HLA-A2.1 molecules [2] = biological target: T1, HLA-A2.1 molecules (Homo sapiens, UniProt P04439, D140Y/D185E/D98H/E176V/E277Q/G131W/G231S/I119V/I121R/I166T/I218V/L300P/L318F/N151K/N90K/P208A/P217A/Q86G/Q94H/R138H/R169H/T345S); conditions: Okazaki et al. 2003; cited from earlier work
[3] = system: RT-WT peptide-pulsed C1R.AAD target cells; test: 51Cr-release cytotoxicity assay: recognition of RT-WT by peptide-specific CTL lines from HHD-transgenic mice; conditions: FIGS. 3-5; E/T ratio 10:1
Description: Mice more than eight weeks of age were immunized subcutaneously in the base of the tail with 100 μl of an emulsion containing 1:1 incomplete Freund's adjuvant (IFA) and PBS solution with antigens and cytokines (50 nmol CTL epitope, 50 nmol HBV core 128-140 helper epitope, 5 μg of IL-12 and 5 μg of granulocyte-macrophage colony stimulating factor). Mice were boosted two weeks later. Spleens were removed 10-14 days after the boost. Immune spleen cells (2.5×10^6/well) were stimulated in 24-well plates with autologous spleen cells (5×10^6/well) pulsed for 2 h with 10 μM CTL epitope peptide in CTM supplemented with 10% T-Stim (Collaborative Biochemical Products, Bedford, Mass.). Following more than 4 in vitro stimulations with peptide-pulsed syngeneic spleen cells, CTL lines were maintained by weekly restimulation of 1×10^6 CTL/well with 4×10^6 peptide pulsed irradiated (3,300 rads) gynogeneic spleen cells as feeders, or by weekly stimulation of 1×10^6 CTL/well with 3.8×10^6 peptide pulsed irradiated C57BL/6 spleen cells and 1-3×10^5 peptide pulsed and irradiated (15,000 rad) Jurkat-A2K^b transfectant cells.
(§1) CTL activity was measured using a 4-hr assay with ^51Cr-labeled target cells (Okazaki et al., J Immunol 2003, 171(5):2548-2555). Target cells (10^6) were pulsed in 100 μl of CTM and 150 μCi ^51Cr for 1.5 hr, washed three times, and added at 3,000 cells/well to the 96-well round-bottom plates with different peptide concentrations. Effector cells were introduced 2 h later. Then, the supernatants were harvested and counted following an additional 4-hr incubation. The percentage of specific ^51Cr release was calculated as 100×(experimental release−spontaneous release)/(Maximum release−spontaneous release). Spontaneous release was determined from target cells incubated in the absence of effector cells. Maximum release was determined in the presence of 0.1 M HCl. C1R.AAD cell lines served as target cells.

HLA-A2.1 molecules [4] = biological target: T1, HLA-A2.1 molecules; type: binding
[5] = type: physicochemical
Source text: CTL peptides of the present invention, including the CTL peptide […] (SEQ ID NO:6; […]. The CTL peptide […] (SEQ ID NO:6; […]. The recommended storage of intact vials of the CTL peptide […] (SEQ ID NO:6; […].
Further, the CTL peptide […]

[6] = type: physicochemical; conditions: mixed with Montanide ISA-51 (300 μg dose)
Source text: When the CTL peptide […] (SEQ ID NO:6; […]

RT-WT specific CTL lines = test: Recognition of RT-variant peptides by RT-WT-specific CTL lines (FIG. 2); conditions: E/T ratio 10:1
Description: as §1

In the case of “sargramostim: glycosylated, recombinant human sargramostim; position 23 arginine replaced with leucine, expressed in yeast”, the stability after reconstitution ([1]; 250 μg vial reconstituted with bacteriostatic water for injection, refrigerator) is listed as 20 days, the “stability after initial entry into the vial” value ([1]; 500 μg/ml liquid) is listed as “up to 20 days” and the “effect on viral load” value (HIV) is listed as “slight decrease”. The “impact on the CD4 count” value (HIV) was “little impact” and the safety (HIV) was “safe”.

In the case of VLYQYMDDV [RT-2L9V], the “binding ability to HLA-A2 relative to RT-WT” value (HLA-A2.1 molecules [2]) is listed as “approximately 8 fold” and the “Recognition of RT-WT by the peptide-specific CTL line” value [3] is listed as “most strongly among all four CTL types”.

With YLYQYVDDV the “FI0.5 (concentration required to give an FI of 0.5)” value (HLA-A2.1 molecules [4]) was 0.245 µM and 0.176 to 0.245 µM.

In the case of VLYQYVDDV, the “freeze-thaw-freeze cycles through which the peptide is stable” value [5] is reported as “at least two”, the “degradation by HPLC” value ([5]; 1.6 mg/ml, 4° C. and 22° C., by 7 days) is reported as “No degradation” and the “loss by adsorption onto the borosilicate glass vial” value ([5]; at the concentrations to be used for vialing) is reported as “not significantly lost”. The storage stability ([5]; controlled room temperature (15° C.-30° C.)) was 3 months, the storage stability ([5]; freezer (−10° C. to −25° C. and −70° C.)) was “at least 18 months” and the storage stability ([5]; refrigerator (2° C.-8° C.)) was “at least 9 months”. For the same substance, the “physical stability of the emulsion” value [6] was 3 h and the “Recognition of RT-WT by the peptide-specific CTL line” value [3] was “to some extent; also recorded: slightly weaker than that of RT-2L9V specific CTL”.

With “VIYQYMDDL (conserved HLA-A2-restricted cytotoxic T lymphocyte (CTL) epitope in human immunodeficiency virus 1 (HIV-1) drug-sensitive wild-type reverse transcriptase (RT-WT), residues 179-187)” the “Recognition of the peptide by RT-WT-specific CTL” value (RT-WT specific CTL lines) was “recognized”.
